In article PMC6366436 (Journal of Enzyme Inhibition and Medicinal Chemistry, 2019) one finds Ki data, which are given here for one compound.

Each structure is given as a SMILES string.

One experiment deals with TcCA. The note with it: read-out: FAM; Hepes pH 7.5, 0.1 M Na2SO4, 25 °C; 15 min pre-incubation.
In a further experiment the target is T1, TweCAδ (Conticribra weissflogii, UniProt Q5U9J1).
T1 construct: gene ca1
The experiment is classed as biochemical. Conditions: Hepes pH 7.5, 0.1 M Na2SO4, 25 °C; 15 min pre-incubation; read-out: FAM.

In the next experiment the target is T2, VchCAβ (Vibrio cholerae, UniProt A0A086SLX8).
T2 construct: gene can
T2 sequence (A0A086SLX8 1-222): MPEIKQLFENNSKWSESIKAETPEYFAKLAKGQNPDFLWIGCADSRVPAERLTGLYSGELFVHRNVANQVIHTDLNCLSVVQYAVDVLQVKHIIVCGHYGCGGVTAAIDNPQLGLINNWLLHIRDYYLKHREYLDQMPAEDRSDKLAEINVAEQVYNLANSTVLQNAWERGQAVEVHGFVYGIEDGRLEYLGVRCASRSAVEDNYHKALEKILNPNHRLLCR
The experiment can be described thus: biochemical.

For the next experiment, the target named is CpsCAγ. The note with it: read-out: FAM; TRIS pH 8.3, 0.1 M Na2SO4, 25 °C; 15 min pre-incubation.
Chain of CpsCAγ (UPI00051A3E8B entry or part of it): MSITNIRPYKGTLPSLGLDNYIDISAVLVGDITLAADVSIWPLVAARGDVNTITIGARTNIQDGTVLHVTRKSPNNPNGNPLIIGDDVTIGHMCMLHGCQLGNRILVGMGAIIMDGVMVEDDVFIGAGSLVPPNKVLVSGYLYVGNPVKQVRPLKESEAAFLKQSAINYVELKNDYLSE
The target of the next experiment is T3, MgaCA (Malassezia globosa, UniProt A8Q1N3).
T3 construct: gene MGL_1814
T3 sequence (A8Q1N3 entry or part of it): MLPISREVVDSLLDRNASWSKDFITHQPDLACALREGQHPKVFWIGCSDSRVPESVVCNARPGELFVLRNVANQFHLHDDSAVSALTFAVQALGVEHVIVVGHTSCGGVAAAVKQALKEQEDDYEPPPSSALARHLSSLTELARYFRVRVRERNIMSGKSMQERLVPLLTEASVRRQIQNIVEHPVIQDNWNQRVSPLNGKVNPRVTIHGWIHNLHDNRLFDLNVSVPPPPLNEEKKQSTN
The experiment is classed as biochemical. Conditions: read-out: FAM.

The target of a further experiment is T4, BpsCAγ.
T4 construct: gene BpsCAgamma
Conditions: read-out: FAM.

The next experiment concerns the target Carbonate dehydratase (Sulfurihydrogenibium sp. (strain YO3AOP1), UniProt B2V8E3). Description: biochemical.
The target of another experiment is T5, VchCAγ (Vibrio cholerae, UniProt Q9KVT1).
T5 construct: gene VC_0058
T5 sequence (Q9KVT1 1-184): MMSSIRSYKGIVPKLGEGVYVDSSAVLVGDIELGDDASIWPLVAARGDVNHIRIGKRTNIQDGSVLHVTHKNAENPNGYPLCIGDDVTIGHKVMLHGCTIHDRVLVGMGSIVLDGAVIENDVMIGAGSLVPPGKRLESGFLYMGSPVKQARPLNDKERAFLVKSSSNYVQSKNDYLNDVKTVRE
Conditions: read-out: FAM; TRIS pH 8.3, 0.1 M Na2SO4, 25 °C; 15 min pre-incubation.

Another experiment has as its target Can2 (Cryptococcus neoformans, UniProt Q3I4V7). The experiment is classed as biochemical. The note with it: read-out: FAM.
In another experiment the target is T6, BpsCAβ (Burkholderia pseudomallei, UniProt Q63Y17).
T6 construct: gene BPSL0372
T6 sequence (Q63Y17 1-256): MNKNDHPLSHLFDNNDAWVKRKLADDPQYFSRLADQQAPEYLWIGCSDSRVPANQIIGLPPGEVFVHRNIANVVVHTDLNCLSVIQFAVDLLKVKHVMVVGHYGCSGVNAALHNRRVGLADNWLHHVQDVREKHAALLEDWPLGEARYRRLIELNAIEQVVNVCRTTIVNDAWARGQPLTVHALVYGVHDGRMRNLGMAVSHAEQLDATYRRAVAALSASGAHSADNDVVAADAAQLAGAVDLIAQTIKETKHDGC
The experiment is classed as biochemical. Conditions: read-out: FAM.

The target in the next experiment is T7, NcoCAγ (Nostoc commune, UniProt A0A2R5FUA4).
T7 construct: gene NIES4072_30780
T7 sequence (A0A2R5FUA4 entry or part of it): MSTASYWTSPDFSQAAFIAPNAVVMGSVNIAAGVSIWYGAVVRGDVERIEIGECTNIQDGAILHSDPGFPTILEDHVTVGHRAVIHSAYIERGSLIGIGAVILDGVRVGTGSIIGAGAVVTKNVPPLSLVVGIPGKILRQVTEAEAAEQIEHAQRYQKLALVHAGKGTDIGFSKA
The experiment is classed as biochemical. The note with it: TRIS pH 8.3, 0.1 M Na2SO4, 25 °C; 15 min pre-incubation; read-out: FAM.

For another experiment, the target named is T8, CgNce103 (Nakaseomyces glabratus, UniProt Q6FTL6).
T8 construct: gene NCE103
T8 sequence (Q6FTL6 entry or part of it): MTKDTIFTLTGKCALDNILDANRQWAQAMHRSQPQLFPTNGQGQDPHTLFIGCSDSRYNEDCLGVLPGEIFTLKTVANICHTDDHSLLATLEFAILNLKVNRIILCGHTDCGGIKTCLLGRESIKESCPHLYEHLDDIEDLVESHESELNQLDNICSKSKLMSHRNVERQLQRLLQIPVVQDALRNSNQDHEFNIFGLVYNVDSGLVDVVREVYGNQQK
The experiment is classed as biochemical. Conditions: read-out: FAM.

The next experiment concerns the target T9, PhaCAγ.
T9 construct: gene PhaCA
Conditions: read-out: FAM; TRIS pH 8.3, 0.1 M Na2SO4, 25 °C; 15 min pre-incubation.

Another experiment concerns the target T10, SazCA (Sulfurihydrogenibium azorense, UniProt C1DTU5).
T10 construct: gene SULAZ_0541
The experiment is classed as biochemical. The note with it: read-out: FAM.

Another experiment deals with T11, PfCA (Plasmodium falciparum, UniProt Q8IHW5).
T11 construct: gene PF3D7_1140000
T11 sequence (Q8IHW5 entry or part of it): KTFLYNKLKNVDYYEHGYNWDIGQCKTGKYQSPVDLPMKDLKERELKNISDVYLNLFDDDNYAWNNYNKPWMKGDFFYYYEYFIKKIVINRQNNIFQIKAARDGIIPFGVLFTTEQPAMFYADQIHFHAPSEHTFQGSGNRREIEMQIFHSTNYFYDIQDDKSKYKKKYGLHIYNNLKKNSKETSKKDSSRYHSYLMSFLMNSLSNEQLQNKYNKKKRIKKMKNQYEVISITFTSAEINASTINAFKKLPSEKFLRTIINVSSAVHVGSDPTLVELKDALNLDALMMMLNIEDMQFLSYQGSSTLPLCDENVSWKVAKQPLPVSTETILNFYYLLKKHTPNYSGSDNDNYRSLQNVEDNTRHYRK
The experiment is classed as biochemical. The note with it: Hepes pH 7.5, 0.1 M Na2SO4, 25 °C; 15 min pre-incubation; read-out: FAM.

In the next experiment the target is T12, VchCAα (Vibrio cholerae, UniProt Q9KMP6).
T12 construct: gene VC_A0274
T12 sequence (Q9KMP6 21-239 limits assumed): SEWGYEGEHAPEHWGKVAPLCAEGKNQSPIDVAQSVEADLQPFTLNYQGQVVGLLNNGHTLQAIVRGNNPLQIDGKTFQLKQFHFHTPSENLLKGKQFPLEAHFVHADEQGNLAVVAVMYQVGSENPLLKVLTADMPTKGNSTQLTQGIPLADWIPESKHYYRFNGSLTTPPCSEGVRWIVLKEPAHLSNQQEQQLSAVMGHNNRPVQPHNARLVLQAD
Conditions: read-out: FAM; Hepes pH 7.5, 0.1 M Na2SO4, 25 °C; 15 min pre-incubation.

Chain of Can2 (Q3I4V7 entry or part of it): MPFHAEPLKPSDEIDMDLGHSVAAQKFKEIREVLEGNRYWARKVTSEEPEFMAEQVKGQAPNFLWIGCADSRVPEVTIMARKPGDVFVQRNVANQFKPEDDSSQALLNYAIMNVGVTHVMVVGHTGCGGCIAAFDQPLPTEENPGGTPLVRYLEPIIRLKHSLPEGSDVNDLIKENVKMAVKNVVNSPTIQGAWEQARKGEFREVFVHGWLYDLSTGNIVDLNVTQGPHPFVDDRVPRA
T10 sequence (C1DTU5 entry or part of it): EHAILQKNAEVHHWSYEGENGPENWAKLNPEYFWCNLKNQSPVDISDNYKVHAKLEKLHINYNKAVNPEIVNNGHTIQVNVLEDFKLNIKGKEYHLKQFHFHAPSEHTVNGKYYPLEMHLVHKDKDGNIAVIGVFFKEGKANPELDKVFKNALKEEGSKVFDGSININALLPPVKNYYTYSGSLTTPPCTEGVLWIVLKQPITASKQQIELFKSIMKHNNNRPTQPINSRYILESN
T1 sequence (Q5U9J1 entry or part of it): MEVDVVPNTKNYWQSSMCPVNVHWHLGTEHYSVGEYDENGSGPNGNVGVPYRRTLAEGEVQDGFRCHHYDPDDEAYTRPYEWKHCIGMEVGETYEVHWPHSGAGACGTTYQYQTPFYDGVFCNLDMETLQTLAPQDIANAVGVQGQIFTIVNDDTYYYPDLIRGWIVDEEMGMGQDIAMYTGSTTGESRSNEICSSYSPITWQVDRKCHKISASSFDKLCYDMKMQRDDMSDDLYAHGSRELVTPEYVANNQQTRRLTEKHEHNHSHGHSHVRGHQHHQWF

Turning to `NC(N)=Nc1nc(CSCCC(N)=NS(N)(=O)=O)cs1` [FAM, Famotidine], the Ki was 5710 nM on TcCA; 408 nM at TweCAδ; 83900 nM at VchCAβ; 89 nM at CpsCAγ; 42100 nM on MgaCA; 8290 nM at BpsCAγ. Also, the Ki at Carbonate dehydratase worked out at 230 nM; on VchCAγ it was 5320 nM; at Can2, 107 nM; at BpsCAβ it was 8270 nM; on NcoCAγ it was 1690 nM; on CgNce103, 13.6 nM. Also, the Ki amounted to 66.8 nM on PhaCAγ, 124 nM at SazCA, 142 nM on PfCA and 72.3 nM on VchCAα.
